According to paper PMC7615677 (Science translational medicine, 2023):

Legend:
[1] = In vitro metabolism, cryopreserved hepatocytes; assay type: in vitro ADME, rat
Method: (§1) Cell viability was determined using trypan blue exclusion. The incubation was performed on a plate shaker (Heidolph Titrimax 100, 900 rpm) placed in a humidified incubator (37°C, 7.5% CO2) for 240 min. The reaction was initiated with the addition of compound with samples taken periodically and quenched with the addition of acetonitrile containing internal standards (metolazone and diazepam). Quenched samples were maintained on ice for approximately 20-30 min, centrifuged (for 5 min) and the supernatant analyzed by LC-MS.
(§2) In vitro intrinsic clearance (CLint, μL/min/mg or μL/min/10^6 cells) values were calculated from the apparent first order degradation rate constant divided by the microsome concentration or the hepatocyte cell number (10^6 viable cells/mL). In vitro CLint values were then divided by the fraction unbound in the in vitro test system (to give CLint,u) and scaled to in vivo values (mL/min/kg) using published physiological scaling factors ([28]). Blood clearance in each species was then calculated using the well-stirred model of hepatic extraction (equation 2) where Q is the hepatic blood flow and fu,blood is calculated from fu,plasma/B:P: [2] PredictedCLblood=Q x fu,blood x CLint,u/Q+fu,blood x CLint,u
(§3) Blood clearance values were converted to plasma clearance by multiplying by the B:P.

[2] = In vitro metabolism, cryopreserved hepatocytes; assay type: in vitro ADME, mouse
Method: as §1, §2, §3

In vivo pharmacokinetics = assay: In vivo pharmacokinetics; design: species or system female BALB/c mice; details: female, BALB/c, plasma
Method: Single dose intravenous (IV) pharmacokinetic (PK) studies in male Sprague Dawley rats and IV and oral PK studies in female BALB/c mice were conducted at Monash University. […] Blood was sampled via a cannula implanted in the carotid artery (also on the day prior to dosing) at pre-determined time points up to 24 h post-dose. Samples were transferred to vials containing heparin as an anticoagulant, gently mixed and centrifuged, and plasma separated for subsequent quantitative analysis using LC-MS. […] A dose of 25 mg/kg prepared in an aqueous suspension vehicle containing 0.5% hydroxypropyl methylcellulose, 0.5% benzyl alcohol and 0.4% polysorbate 80 (0.2 mL per mouse) was also dosed via oral gavage. Mouse blood was sampled via submandibular bleed up to 24 h post-dose (n=2 mice per time point, n=3 samples per mouse) into vials containing heparin and plasma was separated for quantitative analysis as described above.
Additional PK studies were also conducted by WuXi AppTec Co, Ltd (Shanghai, China) according to protocols reviewed and approved by DNDi. […] IV and oral formulations for rats, mice and hamsters were the same as described above. For dogs, the IV dose was administered in saline containing 2% DMSO and 3% Solutol HS-15 and the oral formulation was as described above. Blood was sampled up to 48 h post-dose into vials containing potassium EDTA as an anticoagulant, proteins were precipitated with acetonitrile and plasma was separated and assayed by LC-MS.
Single dose pharmacokinetic parameters (clearance, volume of distribution and half-life) were initially estimated using non-compartmental methods and oral bioavailability was calculated using the ratio of the dose corrected AUC after oral dosing relative to that after IV administration. […] Where a full concentration versus time profile was obtained from a single animal, parameters were estimated for each animal and mean and standard deviations calculated. In the case of mice where sparse sampling was used with multiple animals per time point, the data analysis was conducted using the mean profile.

L. infantum = assay: PK/PD analysis of liver burden versus cumulative unbound AUC; assay type: in vivo, mice; details: Mouse – L. infantum; estimated using the fitted parameters
Description: To determine the correlation between the pharmacokinetic (PK) and pharmacodynamic (PD) data, repeat dose profiles in mice and hamsters following single and twice daily dosing were simulated using the fitted parameters.
Other parameters were less well correlated to efficacy, presumably given that none reflect the cumulative exposure profile with an extended treatment regimen. […] Results for mice infected with L. donovani were similar to those for L. infantum (Table S15).

hERG potassium channel = molecular target: T1, hERG potassium channel (Homo sapiens, UniProt Q12809); assay: hERG channel test (Qpatch / Qube); assay type: cell-based; details: CHO cells stably expressing hERG potassium channels, Qpatch hERG (Fig. S15)
T1 construct: host or cells: Chinese hamster ovary cells
T1 sequence (Q12809 whole entry): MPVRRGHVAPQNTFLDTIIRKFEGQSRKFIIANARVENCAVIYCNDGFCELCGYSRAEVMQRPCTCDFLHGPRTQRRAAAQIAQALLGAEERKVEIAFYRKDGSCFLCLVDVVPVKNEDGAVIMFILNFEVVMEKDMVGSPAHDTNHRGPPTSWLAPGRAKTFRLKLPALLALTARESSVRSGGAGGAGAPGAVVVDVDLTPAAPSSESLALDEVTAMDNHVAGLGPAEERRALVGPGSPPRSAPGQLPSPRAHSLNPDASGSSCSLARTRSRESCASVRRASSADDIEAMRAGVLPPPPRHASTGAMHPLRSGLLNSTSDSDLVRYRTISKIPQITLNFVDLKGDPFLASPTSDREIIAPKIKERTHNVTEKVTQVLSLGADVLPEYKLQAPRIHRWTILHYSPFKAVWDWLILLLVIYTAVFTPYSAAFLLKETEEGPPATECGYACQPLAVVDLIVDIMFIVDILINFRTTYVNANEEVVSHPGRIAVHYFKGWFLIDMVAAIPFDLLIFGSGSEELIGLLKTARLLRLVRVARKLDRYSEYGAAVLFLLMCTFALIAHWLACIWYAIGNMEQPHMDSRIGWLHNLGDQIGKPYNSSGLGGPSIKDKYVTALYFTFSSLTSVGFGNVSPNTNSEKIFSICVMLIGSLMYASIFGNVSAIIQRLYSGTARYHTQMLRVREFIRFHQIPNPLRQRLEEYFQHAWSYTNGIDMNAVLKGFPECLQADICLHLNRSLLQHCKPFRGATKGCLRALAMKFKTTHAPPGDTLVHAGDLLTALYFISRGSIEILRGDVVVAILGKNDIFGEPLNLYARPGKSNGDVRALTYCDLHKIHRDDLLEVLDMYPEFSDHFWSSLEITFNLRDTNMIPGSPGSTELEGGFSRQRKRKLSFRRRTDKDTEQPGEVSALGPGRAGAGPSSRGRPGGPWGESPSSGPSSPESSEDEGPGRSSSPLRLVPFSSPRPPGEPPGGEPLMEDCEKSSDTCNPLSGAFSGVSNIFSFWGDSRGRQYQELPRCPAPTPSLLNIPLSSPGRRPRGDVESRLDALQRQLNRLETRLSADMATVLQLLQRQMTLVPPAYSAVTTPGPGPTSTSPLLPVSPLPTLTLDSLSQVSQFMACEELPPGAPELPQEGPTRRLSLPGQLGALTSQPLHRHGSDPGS
Method: Two concentrations (1 and 30 μM, two replicates each) were tested at room temperature.

BZD (central) = assay: In vitro pharmacology panel (Eurofins); assay type: binding, rat; details: 10 µM
Description: (§4) Listed values represent the percent change relative to the DMSO control activity. When an IC50 had to be determined, eight different concentrations were included. All values are the mean of assay readout duplicates.

[3] = test system: Ca2+ channel, (L,dihydropyridine site); assay: In vitro pharmacology panel (Eurofins); assay type: binding, rat; details: 10 µM
Description: as §4

KV channel = assay: In vitro pharmacology panel (Eurofins); assay type: binding, rat; details: 10 µM
Description: as §4

NMDA receptor = assay: In vitro pharmacology panel (Eurofins); assay type: binding, rat; details: 10 µM
Description: as §4

Na+ channel (site 2) = assay: In vitro pharmacology panel (Eurofins); assay type: binding, rat; details: 10 µM
Description: as §4

[4] = test system: HEK293F-derived mitochondria; assay: Calcium loading capacity (CLC) assessment; assay type: biochemical
Method: The CLC of frozen HEK293F-derived mitochondria was determined using a method based on that previously described for fresh rat liver mitochondria ([23]). Briefly, a buffer (130 mM Sucrose, 37.54 mM KCl, 2.5 mM KH2PO4, 5 mM HEPES) containing 0.5 mM Ca^2+ and supplemented with 15 mM succinate, 2.5 μM rotenone and 0.15 μg/ml cell impermeant Fluo 5N (Life Technologies), was added to each well of a 384 well microplate (control wells also contained 0.24 μl/well DMSO or 3 μM cyclosporine). Thawed mitochondria suspended at 0.6 mg/ml were added to all wells to initiate the assay, and the fluorescence measured every 5 minutes at 520 nm in a PHERAstar FS microplate reader (BMG LabTech, Aylesbury, UK), (25 reads over 2 hours). Area under the curve (AUC) values for the first 10 reads were exported and the concentration-response relationship was modelled using the following formula: y=((B-A)/(1+(10^X/10^C)^D)+A where B=max, A=min, C=IC50, D=slope. The fitted curves were then used to calculate a pXC50 value.

hERG = hERG (Homo sapiens, UniProt Q12809); assay: In vitro pharmacology panel (Eurofins); design: purchased Eurofins (Cerep/DiscoverX SafetyScreen44 in vitro pharmacology panel); details: human hERG potassium channel, [3H]dofetilide binding assay, probe [3H] Dofetilide, read-out: activity (% of DMSO control)
Sequence of hERG (Q12809 whole entry): as above
Description: as §4

Cc1[nH]c2nc(N)nc(C)c2c1-c1ccc(C#N)c2c1OCO2 [DNDI-6174]
Hepatocyte predicted in vivo CLplasma ([1]; Rat): 2.7 mL/min/kg
hepatocyte CLint at 0.5 µM ([1]; rat, cryopreserved hepatocytes): 5.3 ± 0.19 µL/min/1e6 cells
Hepatocyte predicted in vivo CLplasma ([2]; Mouse): 17 mL/min/kg
hepatocyte CLint at 0.5 µM ([2]; mouse, cryopreserved hepatocytes): 9.7 ± 0.091 µL/min/1e6 cells
clearance (In vivo pharmacokinetics; mouse, iv, 2 mg/kg, intravenous 2.0 mg/kg, read-out: Plasma CL): 7.46 mL/min/kg
half-life (In vivo pharmacokinetics; Mouse, intravenous 2.0 mg/kg, read-out: Apparent t1/2 (converted)): 2 h
Cmax (In vivo pharmacokinetics; Mouse, oral 25 mg/kg): 10400 ng/mL
Tmax (In vivo pharmacokinetics; Mouse, oral 25 mg/kg): 1 h
bioavailability (In vivo pharmacokinetics; Mouse, oral 25 mg/kg): > 100%
unbound ED95 (L. infantum): 27
IC50 (hERG potassium channel): 31.6 µM
activity (% of DMSO control) (BZD (central)): 90.2%
activity (% of DMSO control) [3]: 89.6%
activity (% of DMSO control) (KV channel): 98.7%
activity (% of DMSO control) (NMDA receptor): 89.6%
activity (% of DMSO control) (Na+ channel (site 2)): 73.9%
Mean pXC50, calcium loading capacity ([4]; HEK mitochondria): 5
XC50, reduction in calcium loading capacity ([4]; isolated HEK mitochondria): 10 µM
activity at 10 µM (hERG): 94.2%
